Laboratory results from ChEMBL document CHEMBL5614459, “Conformationally Constrained Isoquinolinones as Orally Efficacious Hepatitis B Capsid Assembly Modulators” (ACS Med Chem Lett, 2024).
Active and inactive are the calls of the source. The rule behind the calls is not given here.

Columns and labels:
Hepatitis B virus [1] = assay: Antiviral activity against Hepatitis B virus genotype D infected in HepDE19 cells assessed as inhibition of viral replication by measuring decrease in intracellular rcDNA level by bDNA assay; format: functional, organism-based
Hepatitis B virus [2] = assay: Antiviral activity against Hepatitis B virus genotype D harboring core protein-T33N mutant; format: functional, organism-based
[3] = Cmax in CD-1 mouse at 10 mg/kg, po; format: ADME, organism-based; settings: in vivo
[4] = Drug uptake in CD-1 mouse liver at 10 mg/kg, po or 2 mg/kg, iv measured after 24 hrs; format: ADME, organism-based; settings: read-out: Drug uptake
[5] = Selectivity index, ratio of CC50 for cytotoxicity against human HepDE19 cells to EC50 for antiviral activity against Hepatitis B virus genotype D infected in HepDE19 cells; format: toxicity, cell-based; settings: read-out: Ratio CC50/EC50
Hepatitis B virus [6] = assay: Anti-viral activity against Hepatitis B virus infected in mouse assessed as log10 reduction of HBV DNA levels in serum at 10 mg/kg, po qd for 7 days; format: functional; settings: time 7 day
Hepatitis B virus [7] = assay: Anti-viral activity against Hepatitis B virus infected in mouse assessed as log10 reduction of HBV DNA levels in serum at 3 mg/kg, po qd for 7 days; format: functional; settings: time 7 day
[8] = Half life in CD-1 mouse at 10 mg/kg, po; format: ADME, organism-based; settings: in vivo
[9] = AUC(last) in CD-1 mouse at 10 mg/kg, po; format: ADME, organism-based; settings: in vivo
[10] = Cytotoxicity against human HepDE19 cells by CellTiter-Glo assay; format: toxicity, cell-based
Cytochrome P450 2D6 = Cytochrome P450 2D6 (Homo sapiens, UniProt P10635); assay: Inhibition of CYP2D6 (unknown origin); format: ADME
Cytochrome P450 2C19 = Cytochrome P450 2C19 (Homo sapiens, UniProt P33261); assay: Inhibition of CYP2C19 (unknown origin); format: ADME
Cytochrome P450 3A4 = Cytochrome P450 3A4 (Homo sapiens, UniProt P08684); assay: Inhibition of CYP3A4 (unknown origin); format: ADME
Cytochrome P450 2B6 = target: T1, Cytochrome P450 2B6 (Homo sapiens, UniProt P20813); assay: Inhibition of CYP2B6 (unknown origin); format: ADME
T1 sequence (P20813 whole entry): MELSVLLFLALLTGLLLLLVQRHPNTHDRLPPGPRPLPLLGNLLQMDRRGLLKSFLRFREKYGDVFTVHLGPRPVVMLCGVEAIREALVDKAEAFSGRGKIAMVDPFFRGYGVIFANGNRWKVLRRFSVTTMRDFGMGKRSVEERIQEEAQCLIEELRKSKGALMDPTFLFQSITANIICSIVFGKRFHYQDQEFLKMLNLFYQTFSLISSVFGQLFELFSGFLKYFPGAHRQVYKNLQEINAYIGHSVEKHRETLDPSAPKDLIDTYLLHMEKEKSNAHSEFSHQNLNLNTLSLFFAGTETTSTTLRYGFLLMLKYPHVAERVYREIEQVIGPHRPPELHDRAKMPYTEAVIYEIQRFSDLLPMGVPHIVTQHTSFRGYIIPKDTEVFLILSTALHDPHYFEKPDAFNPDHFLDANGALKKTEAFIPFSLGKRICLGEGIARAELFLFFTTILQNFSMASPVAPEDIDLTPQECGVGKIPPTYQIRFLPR

Hepatitis B virus [11] = assay: Antiviral activity against Hepatitis B virus Genotype D (NCBI U95551); format: functional, organism-based
Hepatitis B virus [12] = assay: Anti-viral activity against Hepatitis B virus infected in mouse assessed as log10 reduction of HBV DNA levels in serum at 1 mg/kg, po qd for 7 days; format: functional; settings: time 7 day
[13] = target: Core antigen (Hepatitis B virus) (UniProt Q03732); assay: Binding affinity to Hepatitis B virus core protein assessed as inhibition of capsid assembly by measuring induction of empty capsid formation; settings: filed as modulator
Hepatitis B virus [14] = assay: Antiviral activity against Hepatitis B virus genotype D harboring core protein-I105T mutant; format: functional, organism-based
[15] = target: Core antigen (Hepatitis B virus) (UniProt Q03732); assay: Binding affinity to Hepatitis B virus core protein assessed as inhibition of capsid assembly by measuring inhibition of pgRNA-encapsidation; settings: filed as modulator
Hepatitis B virus [16] = assay: Antiviral activity against Hepatitis B virus genotype D infected in HepG2-hNTCP-C4 cells assessed as inhibition of cccDNA formation by de novo infection assay; format: functional, organism-based
Hepatitis B virus [17] = assay: Antiviral activity against Hepatitis B virus Genotype F (NCBI HE974369); format: functional, organism-based
Hepatitis B virus [18] = assay: Antiviral activity against Hepatitis B virus Genotype A (NCBI AF537372); format: functional, organism-based
Hepatitis B virus [19] = assay: Anti-viral activity against Hepatitis B virus infected in mouse assessed as log10 reduction of HBV DNA levels in serum at 0.3 mg/kg, po qd for 7 days; format: functional; settings: time 7 day
Hepatitis B virus [20] = assay: Antiviral activity against Hepatitis B virus Genotype C (NCBI AB198079); format: functional, organism-based; settings: genotype C (NCBI […])
Hepatitis B virus [21] = assay: Antiviral activity against Hepatitis B virus Genotype B (NCBI GQ205440); format: functional, organism-based
Hepatitis B virus [22] = assay: Antiviral activity against Hepatitis B virus Genotype H (NCBI AB179747); format: functional, organism-based
[23] = Intrinsic clearance in human liver microsomes; format: ADME, Microsome; settings: read-out: CLH
Hepatitis B virus [24] = assay: Antiviral activity against Hepatitis B virus Genotype E (NCBI AB091255); format: functional, organism-based
Hepatitis B virus [25] = assay: Antiviral activity against Hepatitis B virus Genotype E (NCBI HE974380); format: functional, organism-based
Hepatitis B virus [26] = assay: Antiviral activity against Hepatitis B virus Genotype H (NCBI AB064315); format: functional, organism-based
[27] = Intrinsic clearance in mouse liver microsomes; format: ADME, Microsome; settings: read-out: CLH
Hepatitis B virus [28] = assay: Antiviral activity against Hepatitis B virus Genotype B (NCBI KU964112); format: functional, organism-based
[29] = Hepatitis B virus, genotype D, HepDE19

Chain of Core antigen (Hepatitis B virus) (Q03732 as listed by the source): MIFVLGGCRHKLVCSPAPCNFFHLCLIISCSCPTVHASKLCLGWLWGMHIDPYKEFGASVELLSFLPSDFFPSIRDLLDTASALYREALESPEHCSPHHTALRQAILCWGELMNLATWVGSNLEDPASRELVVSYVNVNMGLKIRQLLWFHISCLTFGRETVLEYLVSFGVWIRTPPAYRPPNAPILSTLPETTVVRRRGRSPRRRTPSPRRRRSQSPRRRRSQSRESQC
Chain of Cytochrome P450 2C19 (P33261 whole entry): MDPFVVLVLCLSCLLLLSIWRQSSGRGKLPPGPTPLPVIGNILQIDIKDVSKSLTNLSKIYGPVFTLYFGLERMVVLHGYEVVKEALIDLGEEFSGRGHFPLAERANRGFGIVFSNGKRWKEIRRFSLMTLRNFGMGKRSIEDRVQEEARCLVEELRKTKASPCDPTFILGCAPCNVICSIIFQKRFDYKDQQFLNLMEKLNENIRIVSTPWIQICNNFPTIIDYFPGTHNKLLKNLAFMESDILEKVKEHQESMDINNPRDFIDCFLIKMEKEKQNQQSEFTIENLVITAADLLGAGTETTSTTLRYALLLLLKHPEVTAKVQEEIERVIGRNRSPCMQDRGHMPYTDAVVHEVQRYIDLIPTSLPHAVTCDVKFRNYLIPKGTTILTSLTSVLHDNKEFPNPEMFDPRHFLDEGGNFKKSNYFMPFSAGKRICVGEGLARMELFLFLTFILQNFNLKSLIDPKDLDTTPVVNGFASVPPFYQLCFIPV
Chain of Cytochrome P450 2D6 (P10635 whole entry): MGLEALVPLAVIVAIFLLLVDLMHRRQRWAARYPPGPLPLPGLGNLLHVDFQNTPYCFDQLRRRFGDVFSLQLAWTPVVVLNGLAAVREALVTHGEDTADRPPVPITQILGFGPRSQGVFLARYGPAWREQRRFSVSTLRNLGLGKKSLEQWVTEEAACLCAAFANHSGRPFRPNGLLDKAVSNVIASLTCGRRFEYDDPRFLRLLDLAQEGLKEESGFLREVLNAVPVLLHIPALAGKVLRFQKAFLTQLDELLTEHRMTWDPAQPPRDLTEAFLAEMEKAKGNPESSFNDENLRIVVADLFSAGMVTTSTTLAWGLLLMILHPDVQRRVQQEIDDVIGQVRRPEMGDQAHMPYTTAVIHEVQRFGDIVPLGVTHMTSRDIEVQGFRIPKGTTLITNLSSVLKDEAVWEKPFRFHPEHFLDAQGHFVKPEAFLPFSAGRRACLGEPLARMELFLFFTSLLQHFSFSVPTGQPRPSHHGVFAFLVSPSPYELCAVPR
Chain of Cytochrome P450 3A4 (P08684 whole entry): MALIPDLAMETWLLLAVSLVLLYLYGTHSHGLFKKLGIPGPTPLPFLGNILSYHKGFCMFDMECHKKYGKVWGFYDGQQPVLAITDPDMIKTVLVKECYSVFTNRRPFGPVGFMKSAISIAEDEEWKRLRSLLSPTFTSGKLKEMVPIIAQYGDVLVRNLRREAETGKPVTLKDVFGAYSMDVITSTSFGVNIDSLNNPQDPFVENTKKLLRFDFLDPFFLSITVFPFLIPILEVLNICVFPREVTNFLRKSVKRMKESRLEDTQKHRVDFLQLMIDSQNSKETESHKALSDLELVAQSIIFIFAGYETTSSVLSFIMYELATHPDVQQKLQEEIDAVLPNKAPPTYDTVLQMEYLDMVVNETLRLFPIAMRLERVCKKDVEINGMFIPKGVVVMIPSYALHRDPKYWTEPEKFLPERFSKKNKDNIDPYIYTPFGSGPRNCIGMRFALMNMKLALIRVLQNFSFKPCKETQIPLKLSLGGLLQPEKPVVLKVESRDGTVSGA

SMILES: CN(C(=O)Nc1ccc(F)c(C(F)F)c1)[C@@H]1COCc2[nH]c(=O)c3cc(F)c(F)cc3c21
- EC50 (Hepatitis B virus [1]; [29]): 6 nM
- EC50 (Hepatitis B virus [2]): 227 nM
- Cmax [3]: 2340 ng/mL
- concentration at 24 h [4]: 135 ng/g
- selectivity ratio [5]: > 1500
- log(activity) (Hepatitis B virus [6]): 2.68
- log(activity) (Hepatitis B virus [7]): 1.68
- half-life [8]: 174 min
- AUC(0-t) [9]: 20800 ng·h/mL
- CC50 [10]: > 10 µM

SMILES: CN(C(=O)Nc1ccc(F)c(Cl)c1)C1CCCc2[nH]c(=O)c3cc(F)c(F)cc3c21 (stereo in doubt; 8)
- EC50 (Hepatitis B virus [1]; hepde19): 12 nM
- IC50 (Cytochrome P450 2D6): 4.3 µM
- IC50 (Cytochrome P450 2C19): < 10 µM
- IC50 (Cytochrome P450 3A4): < 10 µM
- IC50 (Cytochrome P450 2B6): < 10 µM

SMILES: CN(C(=O)Nc1ccc(F)c(Cl)c1)[C@@H]1CN(CCO)Cc2[nH]c(=O)c3cc(F)c(F)cc3c21
- EC50 (Hepatitis B virus [1]; [29]): 1360 nM
- selectivity ratio [5]: > 1500
- CC50 [10]: > 10 µM

SMILES: CN1Cc2[nH]c(=O)c3cc(F)c(F)cc3c2[C@H](N(C)C(=O)Nc2ccc(F)c(Cl)c2)C1
- EC50 (Hepatitis B virus [1]; [29]): 180 nM
- selectivity ratio [5]: > 1500
- CC50 [10]: > 10 µM

SMILES: CC(C)CN(C(=O)Nc1ccc(F)c(Cl)c1)[C@@H]1CCc2[nH]c(=O)c3ccccc3c21
- EC50 (Hepatitis B virus [1]; [29]): 7 nM
- selectivity ratio [5]: > 1500
- CC50 [10]: > 10 µM

SMILES: CN(C(=O)c1cc2cc(F)c(F)cc2[nH]1)[C@@H]1COCc2[nH]c(=O)c3cc(F)c(F)cc3c21
- EC50 (Hepatitis B virus [1]; [29]): 5 nM
- EC50 (Hepatitis B virus [2]): 63 nM
- EC50 (Hepatitis B virus [11]): 1 nM
- log(activity) (Hepatitis B virus [12]): 2.92
- Activity [13]: Active
- Cmax [3]: 2140 ng/mL
- EC50 (Hepatitis B virus [14]): 6 nM
- Activity [15]: Active
- EC50 (Hepatitis B virus [16]): 26 nM
- EC50 (Hepatitis B virus [17]): 1 nM
- concentration at 24 h [4]: 4730 ng/g
- EC50 (Hepatitis B virus [18]): 1 nM
- log(activity) (Hepatitis B virus [19]): 1.48
- EC50 (Hepatitis B virus [20]): 1 nM
- selectivity ratio [5]: > 1500
- EC50 (Hepatitis B virus [21]): 1 nM
- log(activity) (Hepatitis B virus [7]): 2.86
- half-life [8]: 642 min
- EC50 (Hepatitis B virus [22]): 1 nM
- microsomal CLint [23]: 45 µL/min/mg
- AUC(0-t) [9]: 31800 ng·h/mL
- EC50 (Hepatitis B virus [24]): 1 nM
- EC50 (Hepatitis B virus [25]): 13 nM
- CC50 [10]: > 10 µM
- EC50 (Hepatitis B virus [26]): 1 nM
- microsomal CLint [27]: 25 µL/min/mg
- EC50 (Hepatitis B virus [28]): 1 nM

SMILES: CN(C(=O)Nc1ccc(F)c(Cl)c1)C1CCCc2[nH]c(=O)c3cc(F)c(F)cc3c21 (racemic)
- EC50 (Hepatitis B virus [1]; hepde19): 19 nM
- CC50 [10]: > 10 µM

SMILES: CN(C(=O)c1cc2ccc(F)cc2[nH]1)[C@@H]1COCc2[nH]c(=O)c3cc(F)c(F)cc3c21
- EC50 (Hepatitis B virus [1]; [29]): 9 nM
- selectivity ratio [5]: > 1500
- microsomal CLint [23]: 53 µL/min/mg
- CC50 [10]: > 10 µM
- microsomal CLint [27]: 44 µL/min/mg

SMILES: CN(C(=O)Nc1ccc(F)c(Cl)c1)C1CCCCc2[nH]c(=O)c3ccccc3c21 (racemic)
- EC50 (Hepatitis B virus [1]; [29]): 150 nM
- selectivity ratio [5]: > 1500
- CC50 [10]: > 10 µM

SMILES: CN(C(=O)Nc1ccc(F)c(Cl)c1)C1CCCc2[nH]c(=O)c3c(F)c(F)ccc3c21 (racemic)
- EC50 (Hepatitis B virus [1]; [29]): 440 nM
- selectivity ratio [5]: > 1500
- CC50 [10]: > 10 µM

SMILES: CN(C(=O)Nc1ccc(F)c(Cl)c1)C1CCCc2[nH]c(=O)c3cc(F)cc(F)c3c21 (racemic)
- EC50 (Hepatitis B virus [1]; [29]): 510 nM
- selectivity ratio [5]: > 1500
- CC50 [10]: > 10 µM

SMILES: CN(C(=O)Nc1ccc(F)c(Cl)c1)C1CCCc2[nH]c(=O)c3ccccc3c21 (stereo in doubt)
- EC50 (Hepatitis B virus [1]; hepde19): 760 nM

SMILES: CN(C(=O)Nc1ccc(F)c(Cl)c1)C1CCc2[nH]c(=O)c3ccccc3c21 (racemic)
- EC50 (Hepatitis B virus [1]; [29]): 87 nM
- selectivity ratio [5]: > 1500
- CC50 [10]: > 10 µM

SMILES: CN(C(=O)c1cc2ccccc2[nH]1)[C@@H]1COCc2[nH]c(=O)c3cc(F)c(F)cc3c21
- EC50 (Hepatitis B virus [1]; [29]): 9 nM
- selectivity ratio [5]: > 1500
- microsomal CLint [23]: 91 µL/min/mg
- CC50 [10]: > 10 µM
- microsomal CLint [27]: 70 µL/min/mg
